Measurements as given in patent publication US20110071094A1, “(D)-ALLOSE INDUCING PROGRAMMED CELL DEATH IN HORMONE REFRACTORY PROSTATE CANCER LINES” (INDUSTRY-ACADEMIC COOPERATION FOUDATION, GYEONGSANG …, priority 2008, published 2011).

Columns and labels:
PrEC cell line = assay: Cell viability / cell growth, MTT assay; assay type: cell-based; conditions: human NPE cell line PrEC, 0-40 mM
Procedure: DU145 (human HRPC cell line, derived from a patient with brain metastasis) and PrEC (human normal prostate epithelial cell line) cell lines were obtained from Korea Cell Line Bank (KCLB, Seoul, South Korea). DU145 and PrEC cell lines were grown in triplicate culture plates containing RPMI-1640 (HyClone, Logan, Utah, USA) and Dulbecco's Modified Eagle's Medium (HyClone, Logan, Utah, USA) respectively, and kept in a humidified atmosphere containing 5% CO2 at 37° C. for 72 h. The media were supplemented with 10% heat-inactivated fetal bovine serum (HyClone, Logan, Utah, USA), 1% antibio-antimicotic solution containing 10,000 units/ml of penicillin and 10 mg/ml of streptomycin (HyClone, Logan, Utah, USA), HEPES, sodium bicarbonate, p-aminobenzoic acid and insulin (complete culture media). […]
The logarithmic growth phase of DU145 and PrEC cell lines were taken for growth assay using 3-[4,5-dimethylthiazol-2-yl]-2,5-diphenyl tetrazolium bromide (MTT). […] After incubation for the specified time at 37° C. in a humidified 5% CO2 incubator, cell viability was determined. […] To achieve solubilization of formazan crystal formed in viable cells, DMSO was added to each well, and the absorbance was recorded on a microplate reader at 595 nm wavelength. The effect of sugars on growth inhibition was assessed as percent cell viability where control cells were taken as 100% viable.

caspase 3 = assay: Western blot analysis of caspase 3 protein in DU145; assay type: cell-based, human; conditions: DU145, 0, 20 and 40 mM, 72 h
Procedure: After 0, 20 and 40 mM of D-allose treatments for 72 h, DU145 cell line (1×10^6 cells in triplicate culture plates) was harvested into cell lysis buffer (Cell Signaling, Danvers, Mass., USA) supplemented with 1 mM PMSF. The cells were then sonicated, centrifuged and protein concentration was measured by Bradford assay with the Bio-Rad protein assay solution using bovine serum albumin (BSA) as standard. Proteins (30 μg) were separated on a 12.5% SDS-PAGE under reducing conditions and transferred onto a PVDF membrane (Santa Cruz Biotechnology, Santa Cruz, Calif., USA). Prestained protein marker, broad range: 6-175 kDa (New England Biolabs Inc., Ipswich, Mass., USA) run in parallel for detection of the molecular weights of the proteins. Membrane was blocked with 5% (w/v) skimmed milk in order to reduce non-specific binding and immunoblotting was performed using rabbit derived anti-Bcl-2, anti-Bax, anti-Caspase 3 and anti-PARP antibodies (1:500; Santa Cruz Biotechnology, Santa Cruz, Calif., USA). […] Membrane was probed with a goat derived horseradish peroxidase-conjugated anti-rabbit IgG (1:1000; Santa Cruz Biotechnology, Santa Cruz, Calif., USA), and proteins were detected by the enhanced chemiluminescence (ECL) detection system according to the vendor's protocol (Amersham Biosciences, Piscataway, N.J., USA) followed by X-ray exposure. […]

DU145 cell line = assay: Mitochondrial Δψm by JC-1, flow cytometry; assay type: cell-based, human; conditions: DU145, 20 and 40 mM, 24, 48 and 72 h
Procedure: Mitochondrial Δψm was measured by JC-1 mitochondrial membrane potential detection kit (Biotium Inc, Hayward, Calif., USA) according to the manufacturer's protocol. Briefly, DU145 cell line (1×10^6 cells in triplicate culture plates) was harvested after treatments with 0, 20 and 40 mM of D-allose for up to 72 h as mentioned above, stained with […] JC-1 reagent at 37° C. for 15 min and resuspended twice in 1× assay buffer. Changes in mitochondrial Δψm were measured at the single cell level by FACSCalibur flow cytometer (Becton Dickinson, San Jose, Calif., USA) under the following conditions: FL1, 511 volts; FL2, 389 volts; FL1-10.5% FL2; FL2-25.9% FL1; 488 nm argon excitation laser and 585 nm band pass filter. In total 10,000 cells were acquired for analysis by CellQuest software, version 3.0 (Becton Dickinson, San Jose, Calif., USA), and the quantification of cells with low mitochondrial Δψm as the percentage of total cell population was performed. Further, the DU145 cell line was seeded onto chamber slides with 1×10^5 cells/chamber in 500 μl of complete culture medium containing 0, 20 and 40 mM of D-allose for 72 h, permeabilized with 0.1% Triton, stained with 1×JC-1 reagent in dark, mounted with Prolong Antifade reagent (Molecular Probes, Eugene, Oreg., USA), and images (JC-1, green) were acquired by use of a fluorescence microscope (Axioplan 2, Carl Zeiss, Germany).

SMILES: O=C[C@H](O)[C@H](O)[C@H](O)[C@H](O)CO [D-allose]
- effect on growth of PrEC cell line (PrEC cell line): no remarkable effect
- cleaved caspase 3 product (caspase 3): concomitant increase
- full length caspase 3 protein expression (caspase 3): remarkable dose-dependent decrease
- cells with low mitochondrial Δψm (DU145 cell line): appearance of a remarkable subpopulation of cells with low mitochondrial Δψm in a dose- and time-dependent manner
